How the values were obtained:
primary HSCs = test: Activation of primary mouse HSCs on untreated dishes (Example 1): α-SMA qRT-PCR, immunostaining, in-cell Western; format: cell-based, C57BL/6J mice
Description: Primary HSCs were isolated from C57BL/6J mouse liver using the collagenase/pronase digestion method (see Weiskirchen et al. Fibrosis Research, 2005, vol. 117, pp. 99-113). In brief, mice were anesthetized with ketamine/xylazine (120/6 mpk) (Butler Schein, Dublin, Ohio). Abdominal and chest cavities were opened to expose the portal vein and to locate the heart and vena cava, respectively. Subsequently, a 20 G×1″ I.V. catheter (Terumo, Somerset, N.J.) was inserted into the vena cava through the right atrium and the portal vein was cut. A mouse liver was perfused at 5 mL/min with 25 mL SC-1 solution consisting of the following (per L); 8000 mg NaCl, 400 mg KCl, 88.17 mg NaH2PO4 2H2O, 120.45 mg Na2HPO4 12H2O, 2380 mg 4-(2-hydroxyethyl)-1-piperazineethanesulfonic acid (HEPES), 350 mg NaHCO3, 190 mg ethylene glycol tetraacetic acid, and 900 mg glucose, pH 7.2-7.3. The liver was, then, digested with 300 μg/mL pronase E (Roche, Mannheim, Germany) in SC-2 solution consisting of 8000 mg NaCl, 400 mg KCl, 88.17 mg NaH2PO4 2H2O, 120.45 mg Na2HPO4 12H2O, 2380 mg HEPES, 350 mg NaHCO3, and 560 mg CaCl2 2H2O, per L, pH 7.2-7.3, followed by 600 μg/mL collagenase D (Roche, Mannheim, Germany) in SC-2 solution at 5 mL/min for 5 min each. The digested liver was harvested and filtered through a 100 μm cell strainer (Fisher Scientific, Pittsburgh, Pa.). The hepatic cells were then centrifuged at 60×g for 1 min to separate non-parenchymal cells from hepatocytes. The supernatant containing non-parenchymal cells was separated based on density using a top layer of Gey's Balanced Salt Solution (GBSS), a middle layer of 10% Nycodenz (Axis-Shield, Scotland) and a bottom layer of 14.5% Nycodenz diluted in GBSS. The tube was centrifuged at 2100×g or 20 min and the primary HSCs were collected from the interface between the GBSS and 10% Nycodenz.
LX-2 cells were kindly provided by Dr. Scott Friedman at the Icahn School of Medicine at Mount Sinai (New York, N.Y.). […]

Smad3 = test: Western blot of Smad3 phosphorylation and nuclear translocation in LX-2 cells; format: cell-based
Experimental: Whole cell lysates were prepared to conduct Western blot as we previously described (Id.) using antibodies against α-SMA (Sigma, St. Louis, Mo.), Smad3 (Millipore, Billerica, Mass.), and phospho-Smad3 (Cell Signaling, Danvers, Mass.). β-Tubulin (Santa Cruz Biotechnology, Santa Cruz, Calif.) or β-actin (Sigma, St. Louis, Mo.) was used as a loading control. For Western blot of nuclear and cytoplasmic cell fractions, the fractions were prepared using a nuclear extraction kit (Cayman, Ann Arbor, Mich.) as previously described (see Ku et al. Biochim. Biophys. Acta Gen. Subj. 2013, vol. 1830, pp. 2981-2988). Glyceraldehyde 3-phosphate dehydrogenase (GAPDH) (Santa Cruz Biotechnology, Santa Cruz, Calif.) and lamin B (Santa Cruz Biotechnology) were used as a loading control for cytoplasmic and nuclear fractions, respectively. Blots were developed using Westpico horseradish peroxidase chemiluminescence (Pierce, Rockford, Ill.) and images were analyzed using a Chemidoc XRS+system (Bio-Rad) and Image Lab software (Bio-Rad).

LX-2 cells = test: qRT-PCR of TGFβ1-induced fibrogenic and TGFβ1 signaling genes in LX-2 cells; format: cell-based
Experimental: LX-2 cells were kindly provided by Dr. Scott Friedman at the Icahn School of Medicine at Mount Sinai (New York, N.Y.). Cells were maintained in low-glucose DMEM containing 2% FBS, 4 mM 1-glutamine, 100 U/mL penicillin and 100 μg/mL streptomycin in a 37° C. humidified cell culture chamber providing 5% CO2. LX-2 cells were incubated with varying concentrations of ASTX for 12 or 24 h, and subsequently activated by 2 ng/mL of TGFβ1 (Peprotech, Rocky Hill, N.J.) for 1 to 24 h. Primary mouse HSCs were plated on untreated petri dishes (BD Falcon, Franklin Lakes, N.J.) and maintained in low-glucose DMEM supplemented with 10% FBS, 4 mM L-glutamine, 100 U/mL penicillin and 100 μg/mL streptomycin in a 37° C. humidified cell culture chamber under 5% CO2. ASTX (25 μM) was added at day 2 or day 4 after plating until day 6 with daily media change. All cell culture supplies were purchased from HyClone (Thermo Scientific, Logan, Utah).
Total RNA extraction, cDNA synthesis, and qRT-PCR were conducted using a Bio-Rad CFX96 Real-Time system (Bio-Rad, Hercules, Calif.) as previously described (see Park et al. Nutr. Res. 2008, vol. 28, pp. 83-91; Rasmussen et al. J. Nutr. 2008, vol. 138, pp. 476-481). Gene sequences were obtained from the GenBank database and primers were designed using Beacon Designer (Premier Biosoft, Palo Alto, Calif.). Primer sequences are available (see supplemental table of Yang et al. Biochimica et Biophysica Acta 2015, vol. 1850, pp. 178-185).

SMILES: CC1=C(/C=C/C(C)=C/C=C/C(C)=C/C=C/C=C(C)/C=C/C=C(C)/C=C/C2=C(C)C(=O)C(O)CC2(C)C)C(C)(C)CC(O)C1=O (stereo not shown) [ASTX, astaxanthin]
- α-SMA mRNA levels (primary HSCs; 25 μM ASTX added for 2 days during HSC activation (FIG. 6A)): significantly reduced
- decrease of α-SMA protein (in-cell Western) (primary HSCs; ASTX treatment at days 0, 2 and 4 until day 6, vs control without ASTX (FIG. 6C)): 30-40%
- α-SMA protein levels (immunostaining) (primary HSCs; day 4 of incubation, ASTX for 2 days (FIG. 6B)): markedly decreased
- TGFβ1-induced phosphorylation of Smad3 (Smad3; 25 μM ASTX (FIG. 5A)): significantly inhibited
- nuclear translocation of Smad3 (Smad3; 25 μM ASTX (FIG. 5B)): reduced
- induction of α-SMA mRNA by TGFβ1 (LX-2 cells; 25 μM ASTX, 3 and 12 h of TGFβ1 stimulation (FIG. 2A)): significantly inhibited
- induction of Col1A1 mRNA by TGFβ1 (LX-2 cells; 25 μM ASTX, 12 h of TGFβ1 stimulation (FIG. 2A)): significantly inhibited
- induction of the fibrogenic genes by TGFβ1 (LX-2 cells; 10 and 25 μM ASTX, TGFβ1 24 h (FIG. 2B)): significantly inhibited
- TGFβ-induced increases in mRNA levels of TβRI and TβRII (LX-2 cells; LX-2 cells, 25 μM ASTX (FIG. 5C)): almost completely abolished
- TGFβ1-induced expression of α-SMA and Col1A1 mRNA (LX-2 cells; LX-2 cells, 25 μM ASTX, 2 ng/mL TGFβ1 24 h (FIG. 3A)): significantly attenuated
- TGFβ1-induced increase in mRNA levels of Smad2, Smad3 and Smad7 (LX-2 cells; LX-2 cells, 25 μM ASTX, TGFβ1 12 h (FIG. 5C)): abolished or significantly attenuated
- basal expression levels of α-SMA and Col1A1 mRNA (LX-2 cells; LX-2 cells, 25 μM ASTX, no TGFβ1 (FIG. 3A)): did not alter
- TGFβ1-induced NOX4 mRNA levels (LX-2 cells; LX-2 cells, P=0.074): decreased TGFβ1-induced NOX4 mRNA levels although it did not reach statistical significance

— US20160287534A1, “METHODS FOR REVERSING FIBROSIS” (The University of Connecticut, priority 2015, published 2016)
